Consider 15 molecules from patent publication US5955440A, “Macrolide LHRH antagonists” (Abbott Laboratories, priority 1998, dated 1999).

Broadly, the Kb is the affinity of an antagonist, worked out from how it opposes an agonist. What is called pA2 is a measure of antagonist potency on a negative log scale.

The target in test [1] is T1, LHRH rat pituitary receptor (Rattus norvegicus, UniProt P30969).
T1 construct: from tissue; host or cells: rat pituitary
T1 sequence (P30969 1-327): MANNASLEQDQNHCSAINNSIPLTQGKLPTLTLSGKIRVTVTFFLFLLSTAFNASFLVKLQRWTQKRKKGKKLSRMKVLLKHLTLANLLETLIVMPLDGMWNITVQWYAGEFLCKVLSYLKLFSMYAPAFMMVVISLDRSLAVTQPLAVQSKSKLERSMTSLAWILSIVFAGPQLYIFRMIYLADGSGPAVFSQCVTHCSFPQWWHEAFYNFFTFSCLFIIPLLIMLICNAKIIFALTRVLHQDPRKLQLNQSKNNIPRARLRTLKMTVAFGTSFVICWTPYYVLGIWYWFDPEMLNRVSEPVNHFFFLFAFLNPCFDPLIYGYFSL
Description: LHRH rat pituitary receptor binding (pKI). Conditions: negative logarithm of the equilibrium dissociation constants; for Ki: Table 1, read-out: receptor binding affinity (pKI) (converted); for receptor binding affinity (pKI): Table 1. The procedure: (§1) Representative compounds of the present invention were evaluated in in vitro tests for LHRH rat pituitary receptor binding (pKI) and for LH inhibition from rat pituitary cells for antagonist potency (pA2). The tests employed the methods detailed in F. Haviv, et al. J. Med. Chem., 32: 2340-2344 (1989). The receptor binding affinity (pKI) is the negative logarithm of the equilibrium dissociation constants.

Test [2] addresses T2, rat pituitary cells (Rattus norvegicus, UniProt P30969).
T2 construct: endogenous in cells; host or cells: rat pituitary cells
T2 sequence (P30969 1-327): T1 sequence (P30969 1-327)
Briefly: LH inhibition from rat pituitary cells, antagonist potency (pA2). Format: cell-based. Conditions: negative log of antagonist concentration shifting the leuprolide response curve to two-fold higher concentration, Table 2. The procedure:
as §1
The pA2 value is the negative logarithm of the concentration of antagonist which shifts the response curve produced by the agonist leuprolide to two-fold higher concentration. Leuprolide is the LHRH agonist having the structure pyro-Glu^1 -His^2 -Trp^3 -Ser^4 -Tyr^5 -D-Leu^6 -Leu^7 -Arg^8 -Pro^9 -NHEt and is disclosed and claimed in U.S. Pat. No. 4,005,063. Typically pA2 values of 7.0 or greater are indicative of good LHRH antagonist potency.

Take `CC[C@H]1OC(=O)[C@H](C)[C@@H](O[C@H]2C[C@@](C)(OC)[C@@H](O)[C@H](C)O2)[C@H](C)[C@@H](O[C@@H]2O[C@H](C)C[C@H](N(C)C3CCCC3)[C@H]2O)[C@](C)(OC)C[C@@H](C)C(=O)[C@H](C)[C@H]2N(CCc3ccc(Cl)c(Cl)c3)C(=O)O[C@]12C` [Example 1, 3'-N-Desmethyl-3'-N-cyclopentyl-11-deoxy-11-[carboxy-(3,4-dichlorophenethylamino)]-6-O-methyl-erythromycin A 11,12-(cyclic carbamate)]: the Ki in test [1] was 0.813 nM. Besides, in test [2], the Kb is 0.794 nM.

Regarding `CCCN(C)[C@H]1C[C@@H](C)O[C@@H](O[C@@H]2[C@@H](C)[C@H](O[C@H]3C[C@@](C)(OC)[C@@H](O)[C@H](C)O3)[C@@H](C)C(=O)O[C@H](CC)[C@@]3(C)OC(=O)N(CCc4ccc(Cl)c(Cl)c4)[C@@H]3[C@@H](C)C(=O)[C@H](C)C[C@@]2(C)OC)[C@@H]1O` [Example 3, 3'-N-Desmethyl-3'-N-n-propyl-11-deoxy-11-[carboxy-(3,4-dichlorophenethylamino)]-6-O-methyl-erythromycin A 11,12-(cyclic carbamate)], in test [1], the “receptor binding affinity (pKI)” value was found to be 9.13. In addition, the pA2 in test [2] stood at 8.60.

For `CCCN(C)[C@H]1C[C@@H](C)O[C@@H](O[C@@H]2[C@@H](C)[C@H](O[C@H]3C[C@@](C)(OC)[C@@H](O)[C@H](C)O3)[C@@H](C)C(=O)O[C@H](CC)[C@@]3(C)OC(=O)N(CCc4ccc(Cl)c(F)c4)[C@@H]3[C@@H](C)C(=O)[C@H](C)C[C@@]2(C)OC)[C@@H]1O` [Example 16, 3'-N-Desmethyl-3'-N-n-propyl-11-deoxy-11-[carboxy-(4-chloro-3-fluorophenethylamino)]-6-O-methyl-erythromycin A 11,12-(cyclic carbamate)], the Ki in test [1] is 3.98 nM. For the same molecule, the antagonist equilibrium constant (Kb) in test [2] is 32.4 nM.

`CC[C@H]1OC(=O)[C@H](C)[C@@H](O[C@H]2C[C@@](C)(OC)[C@@H](O)[C@H](C)O2)[C@H](C)[C@@H](O[C@@H]2O[C@H](C)C[C@H](N(C)C3CCC3)[C@H]2O)[C@](C)(OC)C[C@@H](C)C(=O)[C@H](C)[C@H]2N(CCc3ccc(Cl)cc3)C(=O)O[C@]12C` [Example 20]: the “receptor binding affinity (pKI)” value in test [1] came out at 8.49. The pA2 in test [2] came out at 7.53.

For `CC[C@H]1OC(=O)[C@H](C)[C@@H](O[C@H]2C[C@@](C)(OC)[C@@H](O)[C@H](C)O2)[C@H](C)[C@@H](O[C@@H]2O[C@H](C)C[C@H](N(C)CC)[C@H]2O)[C@](C)(OC)C[C@@H](C)C(=O)[C@H](C)[C@H]2N(CCc3ccc(Cl)cc3)C(=O)O[C@]12C` [Example 21, 3'-N-Desmethyl-3'-N-ethyl-11-deoxy-11-[carboxy-(4-chlorophenethylamino)]-6-O-methyl-erythromycin A 11,12-(cyclic carbamate)], the Ki in test [1] is 6.17 nM. The Kb in test [2] was 55 nM.

For `CC[C@H]1OC(=O)[C@H](C)[C@@H](O[C@H]2C[C@@](C)(OC)[C@@H](O)[C@H](C)O2)[C@H](C)[C@@H](O[C@@H]2O[C@H](C)C[C@H](N(C)C(C)C)[C@H]2O)[C@](C)(OC)C[C@@H](C)C(=O)[C@H](C)[C@H]2N(CCc3ccc(Cl)cc3)C(=O)O[C@]12C` [Example 22, 3'-N-Desmethyl-3'-N-isopropyl-11-deoxy-11-[carboxy-(4-chlorophenethylamino)]-6-O-methyl-erythromycin A 11,12-(cyclic carbamate)], in test [1], the Ki was 4.47 nM. The Kb in test [2] is 30.2 nM.

For the molecule `CC[C@H]1OC(=O)[C@H](C)[C@@H](O[C@H]2C[C@@](C)(OC)[C@@H](O)[C@H](C)O2)[C@H](C)[C@@H](O[C@@H]2O[C@H](C)C[C@H](N(C)C3CCCC3)[C@H]2O)[C@](C)(OC)C[C@@H](C)C(=O)[C@H](C)[C@H]2N(CCc3ccc(Cl)cc3)C(=O)O[C@]12C` [Example 23, 3'-N-Desmethyl-3'-N-cyclopentyl-11-deoxy-11-[carboxy-(4-chlorophenethylamino)]-6-O-methyl-erythromycin A 11,12-(cyclic carbamate)], in test [1], the Ki is 6.76 nM. Moreover, the Kb in test [2] is 50.1 nM.

Regarding `CC[C@H]1OC(=O)[C@H](C)[C@@H](O[C@H]2C[C@@](C)(OC)[C@@H](O)[C@H](C)O2)[C@H](C)[C@@H](O[C@@H]2O[C@H](C)C[C@H](N(C)C(C)CCc3ccc(O)cc3)[C@H]2O)[C@](C)(OC)C[C@@H](C)C(=O)[C@H](C)[C@H]2N(CCc3ccc(F)c(Cl)c3)C(=O)O[C@]12C` (stereo partly shown) [Example 86, 3'-N-Desmethyl-3'-N-(1-methyl)[3-(4-hydroxy)phenyl]propyl-11-deoxy-11-[carboxy-(3-chloro-4fluorophenethylamino)]-6-O-methyl-erythromycin A 11,12-(cyclic carbamate)], in test [1], the Ki is 1.78 nM.

Consider `CC[C@H]1OC(=O)[C@H](C)[C@@H](O[C@H]2C[C@@](C)(OC)[C@@H](O)[C@H](C)O2)[C@H](C)[C@@H](O[C@@H]2O[C@H](C)C[C@H](N(C)CCCc3cccc(C)n3)[C@H]2O)[C@](C)(OC)C[C@@H](C)C(=O)[C@H](C)[C@H]2N(CCc3ccc(F)c(Cl)c3)C(=O)O[C@]12C` [Example 87, 3'-N-Desmethyl-3'-N-[3-(6-methyl-2-pyridyl)propyl]-11-deoxy-11-[carboxy-(3-chloro-4-fluorophenethylamino)]-6-O-methyl-erythromycin A 11,12-(cyclic carbamate)], for which the Ki in test [1] was 2.24 nM.

For the molecule `CC[C@H]1OC(=O)[C@H](C)[C@@H](O[C@H]2C[C@@](C)(OC)[C@@H](O)[C@H](C)O2)[C@H](C)[C@@H](O[C@@H]2O[C@H](C)C[C@H](N(C)CCCc3ccc(C)cn3)[C@H]2O)[C@](C)(OC)C[C@@H](C)C(=O)[C@H](C)[C@H]2N(CCc3ccc(F)c(Cl)c3)C(=O)O[C@]12C` [Example 88, 3'-N-Desmethyl-3'-N-[3-(5-methyl-2-pyridyl)propyl]-11-deoxy-11[carboxy-(3-chloro-4-fluorophenethylamino)]-6-O-methyl-erythromycin A 11,12-(cyclic carbamate)], the Ki in test [1] is 2.09 nM.

As to `CC[C@H]1OC(=O)[C@H](C)[C@@H](O[C@H]2C[C@@](C)(OC)[C@@H](O)[C@H](C)O2)[C@H](C)[C@@H](O[C@@H]2O[C@H](C)C[C@H](N(C)CCc3ccccn3)[C@H]2O)[C@](C)(OC)C[C@@H](C)C(=O)[C@H](C)[C@H]2N(CCc3ccc(Cl)c(Cl)c3)C(=O)O[C@]12C` [Example 89, 3'-N-Desmethyl-3'-N-(2-pyridyl)ethyl-11-deoxy-11-[carboxy-(3,4-dichlorophenethylamino)]-6-O-methyl-erythromycin A 11,12-(cyclic carbamate)], the Ki in test [1] was 4.17 nM.

Turning to `CC[C@H]1OC(=O)[C@H](C)[C@@H](O[C@H]2C[C@@](C)(OC)[C@@H](O)[C@H](C)O2)[C@H](C)[C@@H](O[C@@H]2O[C@H](C)C[C@H](N(C)CCc3ccccn3)[C@H]2O)[C@](C)(OC)C[C@@H](C)C(=O)[C@H](C)[C@H]2N(CCc3ccc(F)c(Cl)c3)C(=O)O[C@]12C` [Example 90, 3'-N-Desmethyl-3'-N-(2-pyridyl)ethyl-11-deoxy-11-[carboxy-(3-chloro-4-fluorophenethylamino)]-6-O-methyl-erythromycin A 11,12-(cyclic carbamate)], in test [1], the Ki was 4.07 nM.

As for `CC[C@H]1OC(=O)[C@H](C)[C@@H](O[C@H]2C[C@@](C)(OC)[C@@H](O)[C@H](C)O2)[C@H](C)[C@@H](O[C@@H]2O[C@H](C)C[C@H](N(C)Cc3ccc(O)cc3)[C@H]2O)[C@](C)(OC)C[C@@H](C)C(=O)[C@H](C)[C@H]2N(CCc3ccc(Cl)c(Cl)c3)C(=O)O[C@]12C` [Example 91, 3'-N-Desmethyl-3'-N-(4-hydroxybenzyl)-11-deoxy-11-[carboxy-(3,4-dichlorophenethylamino)]-6-O-methyl-erythromycin A 11,12-(cyclic carbamate)], in test [1], the Ki is 9.55 nM.

As for `CC[C@H]1OC(=O)[C@H](C)[C@@H](O[C@H]2C[C@@](C)(OC)[C@@H](O)[C@H](C)O2)[C@H](C)[C@@H](O[C@@H]2O[C@H](C)C[C@H](N(C)Cc3ccncc3)[C@H]2O)[C@](C)(OC)C[C@@H](C)C(=O)[C@H](C)[C@H]2N(CCc3ccc(Cl)c(Cl)c3)C(=O)O[C@]12C` [Example 92, 3'-N-Desmethyl-3'-N-(4-pyridylmethyl)-11-deoxy-11-[carboxy-(3,4-dichlorophenethylamino)]-6-O-methyl-erythromycin A 11,12-(cyclic carbamate)], the Ki in test [1] is 6.31 nM.

Regarding `CC[C@H]1OC(=O)[C@H](C)[C@@H](O[C@H]2C[C@@](C)(OC)[C@@H](O)[C@H](C)O2)[C@H](C)[C@@H](O[C@@H]2O[C@H](C)C[C@H](N(C)CCC(C)SC)[C@H]2O)[C@](C)(OC)C[C@@H](C)C(=O)[C@H](C)[C@H]2N(CCc3ccc(Cl)c(Cl)c3)C(=O)O[C@]12C` (stereo partly shown) [Example 93, 3'-N-Desmethyl-3'-N-[(3-methylthio)butyl]-11-deoxy-11-[carboxy-(3,4-dichlorophenethylamino)]-6-O-methyl-erythromycin A 11,12-(cyclic carbamate)], the Ki in test [1] is 5.01 nM.
